The results in this text go back to US8435982B2, “Pharmaceutical formulation containing lipophilic drugs and milk as a solubilizing/dispensing agent and method for the preparation thereof” (Pharmathen S.A., priority 2007, dated 2013).

What all share (type): physicochemical
Series [1] can be described thus: Solubility studies in alkaline buffers. The following applies: for solubility at 48 h: 25 °C, thermodynamic from solid. As for the experimental part: Solubility studies were performed at 25° C. in various buffers. More specifically:
An excess quantity of mefenamic acid powder was added to a 25 ml flask containing 15 ml of the appropriate aqueous medium. The flasks were placed in a thermostated water bath at 25° C. under constant shaking rate of 100 rpm for 48 h. The filtrated samples of mefenamic acid were monitored at 285 nm. Calibration curves were performed for every buffer, prior to measurements.

Series [2] can be described thus: Stability studies of NSAID alkaline buffer solutions. The settings on record: for total amount of drug compared to the initial value: alkaline buffer solution pH 12. How it is done: The drugs were dissolved in the following buffers: 0.2 M NaH2PO4—NaOH pH 12 and 0.05 M glycine-NaOH pH 12. A weighted amount of drug, corresponding to its therapeutic dose, was dissolved in the appropriate volume of alkaline buffer. […] Also, the pH values of the aqueous alkaline NSAIDs solutions were measured before storage and at the predetermined time points.

A short description of series [3]: Final pH of drug-buffer solution solubilized/dispersed in milk. How it is done:
The appropriate buffer was added in milk gradually under magnetic stirring and the increase of the milk pH was measured. […] Subsequently, experiments were performed in order to evaluate if an active ingredient initially dissolved in buffer, when solubilized/dispersed in milk, is suitable for oral administration. […] The buffer volume was increased by 0.5 ml each time and the pH values after each addition were measured.

Each structure is given as a SMILES string. Converted amounts (≈) assume the structure as drawn. Where two headings read alike, the source gives them in different places.

Take `Cc1cnc(NC(=O)C2=C(O)c3ccccc3S(=O)(=O)N2C)s1` [Meloxicam]: in series [1] (aqueous buffer, buffer glycine/NaOH at nominal pH=12, read-out: solubility), the solubility (in general, the concentration that dissolves in the medium under given conditions) at 48 h is 15.4 mg/mL (≈ 43.8 mM).
As for `CN1C(C(=O)Nc2ccccn2)=C(O)c2sccc2S1(=O)=O` [Tenoxicam], the solubility at 48 h in series [1] (phosphate buffer, aqueous buffer, buffer 0.1M NaH2PO4/NaOH at nominal pH=12, read-out: solubility) is 14.3 mg/mL (≈ 42.5 mM).
Consider `CS(=O)(=O)Nc1ccc([N+](=O)[O-])cc1Oc1ccccc1` [Nimesulide], for which the “total amount of drug compared to the initial value” in series [2] (accelerated stability studies, 30° C.) is 99.7-100.2%; in series [2] (accelerated stability studies, 40° C.) it was 101-118%; in series [2] (long term studies at 25° C. (3 and 6 months)), 96.5-107%. The “change of pH (compared to the initial value)” value in series [2] (both long term and accelerated studies, all three temperatures) is 98.8-100.2%. Besides, the “% change of drug amount” value in series [2] (long term and accelerated stability studies) was “within acceptable ranges”.
For the molecule `Cc1cccc(Nc2ccccc2C(=O)O)c1C` [Mefenamic acid], the “Final pH” value was determined as 6.81 in series [3] (dose 50 mg, 10 mg/mL, 5 mL NaH2PO4/NaOH 0.2M (nominal pH=12) in 150 ml […] fat long duration milk); 7.01 in series [3] (dose 100 mg, 10 mg/mL, 10 mL NaH2PO4/NaOH 0.2M (nominal pH=12) in 150 ml […] fat long duration milk); 7.73 in series [3] (dose 500 mg, 25 mg/mL, 20 mL NaH2PO4/NaOH 0.2M (nominal pH=12) in 150 ml […] fat long duration milk); 7.35 in series [3] (dose 500 mg, 40 mg/mL, 12.5 mL NaH2PO4/NaOH 0.2M (nominal pH=12) in 150 ml […] fat long duration milk). In addition, in series [1] (25° C., nominal pH range of 11-12, 0.2M NaH2PO4—NaOH buffer), the “solubility (FIG. 1)” value is listed as “greatly enhanced”.
With `Cc1c(Cl)cccc1Nc1ccccc1C(=O)O` [Tolfenamic acid], the “Final pH” value in series [3] (dose 100 mg, 10 mg/mL, 10 mL NaH2PO4/NaOH 0.2M (nominal pH=12) in 150 ml […] fat long duration milk (tolfenamic acid)) was 7.42; in series [3] (dose 100 mg, 20 mg/mL, 5 mL NaH2PO4/NaOH 0.1M (nominal pH=12) in 150 ml […] fat long duration milk), 6.75; in series [3] (dose 100 mg, 20 mg/mL, 5 mL NaH2PO4/NaOH 0.2M (nominal pH=12) in 150 ml […] fat long duration milk), 7.03; in series [3] (dose 200 mg, 20 mg/mL, 10 mL NaH2PO4/NaOH 0.2M (nominal pH=12) in 150 ml […] fat long duration milk), 7.34; in series [3] (dose 300 mg, 25 mg/mL, 12 mL NaH2PO4/NaOH 0.2M (nominal pH=12) in 150 ml […] fat long duration milk), 7.40. Besides, in series [1] (pH 12, aqueous buffer), the solubility at 48 h was 35.1 mg/mL (≈ 134 mM).
